The record followed here is ChEMBL document CHEMBL3632507, “Discovery of novel VEGFR-2 inhibitors. Part 5: Exploration of diverse hinge-binding fragments via core-refining approach” (Eur J Med Chem, 2015).

One test relates to A549. The test can be described thus: Antiproliferative activity against human A549 cells assessed as cell growth inhibition after 48 hrs by MTT assay. To be noted: A549, 48 h. (In general: Tetrazolium dyes change colour on reduction, which living cells bring about.)
The nature of test [1]: Antiproliferative activity against human SMMC7721 cells assessed as cell growth inhibition after 48 hrs by MTT assay. To be noted: SMMC-7721, 48 h.
Test [2] concerns the target Vascular endothelial growth factor receptor 2 (Homo sapiens, UniProt P35968). The test can be described thus: Inhibition of VEGFR-2 (unknown origin) after 1 hr by ADP-Glo assay. On the technique in general: In ADP-Glo the light output rises with the ADP produced.

By IC50 is commonly meant the midpoint of a concentration-inhibition curve.

Vascular endothelial growth factor receptor 2, sequence (P35968 whole entry): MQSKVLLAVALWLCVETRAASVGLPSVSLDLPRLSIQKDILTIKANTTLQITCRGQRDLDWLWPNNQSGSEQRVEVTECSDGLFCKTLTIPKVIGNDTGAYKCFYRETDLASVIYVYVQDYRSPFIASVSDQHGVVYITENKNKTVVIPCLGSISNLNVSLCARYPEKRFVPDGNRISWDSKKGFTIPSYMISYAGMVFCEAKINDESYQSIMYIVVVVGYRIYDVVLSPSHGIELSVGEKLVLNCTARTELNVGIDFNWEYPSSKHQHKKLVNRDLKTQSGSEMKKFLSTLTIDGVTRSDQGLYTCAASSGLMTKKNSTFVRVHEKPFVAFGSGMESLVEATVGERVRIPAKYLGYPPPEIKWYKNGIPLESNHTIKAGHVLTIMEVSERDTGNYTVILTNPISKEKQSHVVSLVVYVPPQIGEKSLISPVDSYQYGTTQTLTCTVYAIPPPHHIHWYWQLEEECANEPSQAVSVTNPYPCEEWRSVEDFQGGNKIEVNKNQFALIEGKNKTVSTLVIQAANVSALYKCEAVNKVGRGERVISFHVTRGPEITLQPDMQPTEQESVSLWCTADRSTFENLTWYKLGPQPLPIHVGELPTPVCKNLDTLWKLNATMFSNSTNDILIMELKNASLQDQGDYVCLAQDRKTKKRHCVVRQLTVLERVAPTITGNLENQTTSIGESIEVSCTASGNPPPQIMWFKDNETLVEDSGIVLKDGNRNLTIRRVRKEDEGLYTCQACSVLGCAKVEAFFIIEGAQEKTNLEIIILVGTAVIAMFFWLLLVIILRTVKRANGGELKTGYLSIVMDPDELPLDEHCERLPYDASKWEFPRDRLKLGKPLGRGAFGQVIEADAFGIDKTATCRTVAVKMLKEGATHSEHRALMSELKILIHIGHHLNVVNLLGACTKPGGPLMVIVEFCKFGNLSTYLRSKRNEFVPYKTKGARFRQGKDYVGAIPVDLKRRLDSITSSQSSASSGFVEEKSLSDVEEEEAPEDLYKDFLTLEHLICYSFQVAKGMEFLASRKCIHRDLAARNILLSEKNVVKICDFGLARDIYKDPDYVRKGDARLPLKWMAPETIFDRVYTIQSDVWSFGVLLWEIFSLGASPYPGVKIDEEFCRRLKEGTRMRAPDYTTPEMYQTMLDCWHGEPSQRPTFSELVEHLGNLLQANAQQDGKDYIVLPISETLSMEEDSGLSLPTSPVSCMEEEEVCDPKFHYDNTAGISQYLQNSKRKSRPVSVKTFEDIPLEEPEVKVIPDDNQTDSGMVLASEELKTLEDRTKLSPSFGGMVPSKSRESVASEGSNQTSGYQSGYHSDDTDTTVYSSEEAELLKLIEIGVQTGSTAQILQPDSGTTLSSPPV

Consider `Nc1n[nH]c2cccc(-c3cccc(NC(=O)Nc4cc(C(F)(F)F)cc(C(F)(F)F)c4)c3)c12`, for which the IC50 stood at 1510 nM with A549 and 3540 nM in test [1].
For the molecule `Nc1n[nH]c2cccc(-c3cccc(NC(=O)Nc4ccc(Cl)c(C(F)(F)F)c4)c3)c12`, the 50% inhibitory concentration (IC50) was 3410 nM in the test with A549 and 1150 nM in test [1].
With `Cc1ccc(NC(=O)Nc2cccc(-c3cccc4[nH]nc(N)c34)c2)cc1`, the 50% inhibitory concentration (IC50) turned out to be 1660 nM in the test with A549 and 4450 nM in test [1].
As to `COc1ccc(C(=O)OCCN(C(C)C)C(C)C)cc1NC(=O)Nc1cc(-c2cccnc2)cc(C(F)(F)F)c1`, the IC50 in the test with A549 was 1910 nM; in test [1] it was 730 nM.
Consider `COc1ccc(C(=O)OCCN(C)C)cc1NC(=O)Nc1cc(-c2cncnc2)ccc1OC(F)(F)F`, for which the IC50 is 14700 nM in the test with A549 and 6150 nM in test [1].
Consider `CCN(CC)CCOC(=O)c1ccc(OC)c(NC(=O)Nc2cc(-c3ccc4[nH]ccc4c3)ccc2OC(F)(F)F)c1`, for which the IC50 was 990 nM with A549 and 570 nM in test [1].
As to `COc1ccc(C(=O)OCCN(C)C)cc1NC(=O)Nc1cc(-c2cncnc2)cc(C(F)(F)F)c1`, the half-inhibitory concentration (IC50) with A549 is 1660 nM; in test [2], over 500000 nM; in test [1], 1390 nM.
In the case of `COc1ccc(C(=O)OCCN(C(C)C)C(C)C)cc1NC(=O)Nc1cc(-c2cn[nH]c2)ccc1OC(F)(F)F`, the IC50 with A549 is 1520 nM; in test [2] it was over 500000 nM; in test [1], 1230 nM.
With `COc1cccc(NC(=O)Nc2cccc(-c3cccc4[nH]nc(N)c34)c2)c1`, the results for the IC50 (in the test on A549; in test [1]) were 2490 nM and 2860 nM, respectively.
With `Nc1n[nH]c2cccc(-c3cccc(NC(=O)Nc4ccc(F)c(F)c4)c3)c12`, the IC50 is 3040 nM with A549, over 500 nM in test [2] and 5880 nM in test [1].
On to `Nc1n[nH]c2cccc(-c3cccc(NC(=O)Nc4ccccc4Cl)c3)c12`, for which the IC50 in the test on A549 is 15800 nM; in test [1], over 500000 nM.
Take `CN(C)CCOc1ccc(NC(=O)Nc2ccc(-c3cccc4[nH]nc(N)c34)cc2)cc1F`: the IC50 in the test with A549 is over 500000 nM; in test [1] it was 600 nM.
Turning to `Cc1cccc(C)c1NC(=O)Nc1cccc(-c2cccc3[nH]nc(N)c23)c1`, the results for the IC50 (with A549; in test [2]; in test [1]) were 229000 nM, over 500 nM and over 500000 nM, respectively.
As to `CNC(=O)c1cc(Oc2ccc(NC(=O)Nc3ccc(Cl)c(C(F)(F)F)c3)cc2)ccn1` [SORAFENIB], the IC50 with A549 was found to be 1450 nM; in test [1], 650 nM.
`COc1ccc(-c2ccc(OC(F)(F)F)c(NC(=O)Nc3cc(C(=O)OCCN(C)C)ccc3OC)c2)cn1`: the IC50 in the test on A549 stood at 910 nM; in test [1] it was 2010 nM.
Regarding `COc1ccc(C(=O)OCCN(C)C)cc1NC(=O)Nc1cc(-c2cccnc2)ccc1OC(F)(F)F`, the values for the IC50 (with A549; in test [1]) were 1010 nM and 1380 nM, respectively.
Turning to `Nc1n[nH]c2cccc(-c3cccc(NC(=O)Nc4nccs4)c3)c12`, the IC50 in the test on A549 is over 500000 nM; in test [2], over 500 nM; in test [1], 550 nM.
Take `COc1ccc(C(=O)OCCN2CCOCC2)cc1NC(=O)Nc1cc(-c2cccnc2)cc(C(F)(F)F)c1`: the IC50 in the test on A549 was over 500000 nM; in test [2], over 500000 nM; in test [1], 11100 nM.
With `Nc1n[nH]c2cccc(-c3cccc(NC(=O)Nc4ccccc4F)c3)c12`, the IC50 was found to be 1170 nM with A549 and 2360 nM in test [1].
For `CC(C)c1cccc(NC(=O)Nc2cccc(-c3cccc4[nH]nc(N)c34)c2)c1`, in that order: 1420 nM and 280 nM.
As to `Nc1n[nH]c2cccc(-c3cccc(NC(=O)Nc4cccc(F)c4)c3)c12`, the results for the IC50 (in the test with A549; in test [1]) were 1360 nM and 1240 nM, respectively.
Consider `Nc1n[nH]c2cccc(-c3cccc(NC(=O)Nc4cccc(Cl)c4)c3)c12`, for which the half-maximal inhibitory concentration (IC50) in the test with A549 was 1720 nM; in test [1], 1830 nM.
For `Nc1n[nH]c2cccc(-c3cccc(NC(=O)Nc4ccc(F)cc4)c3)c12`, the IC50 (in the test with A549; in test [1]) was over 500000 nM in each case.
As for `COc1ccc(C(=O)OCCN(C)C)cc1NC(=O)Nc1cc(-c2cccnc2)cc(C(F)(F)F)c1`, the IC50 was 2490 nM with A549 and 860 nM in test [1].
In the case of `Cc1ccc(NC(=O)Nc2cccc(-c3cccc4[nH]nc(N)c34)c2)cc1Cl`, the concentration for half-maximal inhibition (IC50) in the test on A549 came out at 1750 nM; in test [1], 510 nM.
For `COc1ccc(C(=O)OCCN(C)C)cc1NC(=O)Nc1cc(-c2ccc3[nH]ccc3c2)ccc1OC(F)(F)F`, the concentration for half-maximal inhibition (IC50) in the test with A549 is 950 nM; in test [1], 1760 nM.
With `Nc1n[nH]c2cccc(-c3cccc(NC(=O)Nc4cccc(C(F)(F)F)c4)c3)c12`, the IC50 in the test with A549 worked out at 1950 nM; in test [1], 1410 nM.
On to `COc1ccc(C(=O)OCCN2CCOCC2)cc1NC(=O)Nc1cc(-c2ccc3[nH]ccc3c2)cc(C(F)(F)F)c1`, for which the IC50 in the test with A549 is 1240 nM; in test [2] it was over 500000 nM; in test [1] it was 1770 nM.
Regarding `COc1ccc(C(=O)OCCN(C(C)C)C(C)C)cc1NC(=O)Nc1cc(-c2cncnc2)ccc1OC(F)(F)F`, the half-inhibitory concentration (IC50) in the test with A549 was 3970 nM; in test [2], over 500000 nM; in test [1], 920 nM.
The like results for `COc1ccc(C(=O)OCCN(C(C)C)C(C)C)cc1NC(=O)Nc1cc(-c2cnn(C)c2)ccc1OC(F)(F)F` were, in that order, over 500000 nM, over 500000 nM and over 500000 nM.
The like results for `CCN(CC)CCOC(=O)c1ccc(OC)c(NC(=O)Nc2cc(-c3cncnc3)ccc2OC(F)(F)F)c1` were, in that order, over 500000 nM, over 500000 nM and 3430 nM.
For the molecule `COc1ccc(C(=O)OCCN(C(C)C)C(C)C)cc1NC(=O)Nc1cc(-c2ccc3[nH]ccc3c2)cc(C(F)(F)F)c1`, the IC50 is 1570 nM with A549, over 500000 nM in test [2] and 410 nM in test [1].
Regarding `CCN(CC)CCOC(=O)c1ccc(OC)c(NC(=O)Nc2cc(-c3ccc(OC)nc3)ccc2OC(F)(F)F)c1`, the values for the 50% inhibitory concentration (IC50) (with A549; in test [1]) were 1730 nM and 640 nM, respectively.
For `Nc1n[nH]c2cccc(-c3cccc(NC(=O)Nc4ccc(Cl)cc4Cl)c3)c12`, the values for the IC50 (in the test with A549; in test [1]) were over 500000 nM and 1900 nM, respectively.
As to `COc1ccc(C(=O)OCCN2CCOCC2)cc1NC(=O)Nc1cc(-c2cn[nH]c2)ccc1OC(F)(F)F`, the IC50 with A549 was over 500000 nM; in test [1], 2550 nM.
For `COc1ccc(C(=O)OCCN2CCOCC2)cc1NC(=O)Nc1cc(-c2cncnc2)ccc1OC(F)(F)F`, in that order: 1280 nM and 10800 nM.
In the case of `Cc1ccnc(NC(=O)Nc2ccc(-c3cccc4[nH]nc(N)c34)cc2)c1`, the IC50 was 1160 nM in the test with A549, over 500 nM in test [2] and 430 nM in test [1].
For `COc1ccc(C(=O)OCCN(C(C)C)C(C)C)cc1NC(=O)Nc1cc(-c2ccc3[nH]ccc3c2)ccc1OC(F)(F)F`, the IC50 in the test with A549 is 2060 nM; in test [2] it was over 500000 nM; in test [1] it was 360 nM.
Consider `Nc1n[nH]c2cccc(-c3ccc(NC(=O)Nc4ccc5c(c4)OCO5)cc3)c12`, for which the IC50 with A549 is 5230 nM; in test [1] it was 530 nM.
